Measurements from US20110171193A1, “COMPOSITIONS AND METHODS FOR TREATING PULMONARY HYPERTENSION” (THE BOARD OF TRUSTEES OF THE UNIVERSITY OF ILLINOIS, priority 2008, published 2011).

Assays:
[1] = tested on: Cav1−/− mice; assay: Lung histology and muscularized distal pulmonary arteries in Cav1−/− mice; type: in vivo, mouse; conditions: 8 month old Cav1−/− mice; 1 mg/ml in drinking water for 5 wk
Procedure: Following PBS perfusion, the lung tissues were fixed for 5 min by instillation of 10% PBS-buffered formalin through trachea catheterization at a transpulmonary pressure of 15 cm H2O. After tracheal ligation, harvested lungs were fixed with 10% PBS-buffered formalin overnight at […] with agitation. After paraffin processing, the tissues were cut into semithin 4 to […] thick, and stained with either H & E for histological analysis or an antibody against nitrotyrosine (Upstate Biotechnology) for immunohistochemistry. Immunostaining was developed with a Vectastain ABC kit (Vector Laboratories). Histology and Imaging. Lung tissues were fixed and processed for H & E staining and immunofluorescent staining. for 5 min by instillation of 10% PBS-buffered formalin through trachea catheterization at a transpulmonary pressure of 15 cm H2O, and then overnight at 4° C. with agitation. After paraffin processing, the tissues were cut into semi-thin 4 to […] thick, and stained with H & E for histological analysis. For immunofluorescent staining, antigen retrieval was performed by incubating the slides in 10 mM sodium citrate (pH 6.0) at 95° C. for 10 min. […] The anti-a-SMA-positive pulmonary arterial vessels per field (200×) were counted based on the diameter (<40 μm versus>40 μm). Twenty fields per section were randomly identified and counted. […]

[2] = tested on: Cav1−/− mice; assay: RVSP in Cav1−/− mice with PH; type: in vivo, mouse; conditions: 8 month old Cav1−/− mice; 1 mg/ml in drinking water for 5 wk
Procedure: RVSP was determined as follows. Briefly, following anesthesia, mice were prepared for catheterization. A 1.4 F pressure transducer catheter (Millar Instruments) was carefully inserted via the right external jugular vein into the right ventricle to obtain measurements of RVSP using the Acknowledge software (Biopac Systems, Inc.). To determine lung vascular resistance, mice were anesthetized and prepared for perfusion. Pulmonary arterial (Ppa) and venous (Pv) pressures were monitored continuously through the pulmonary arterial and left atrial cannula, which were connected to a pressure transducer. […] Ppa was measured at steady-state and was plotted against the flow, which was measured by weighing the effluent collected over a one-minute period. […]
To determine whether pharmacological inhibition of eNOS in Cav1^−/− mice can reverse PH, we administered N-Nitro-L-Arginine Methyl Ester (L-NAME), a NOS inhibitor, to Cav1^−/− mice following onset of PH. […] Data are expressed as mean±SD (n=5-7). *, P=0.023 WT versus Cav1^−/−;**, P=0.015 Cav-L versus Cav1^−/−; #, P>0.5 Cav-D versus Cav1^−/−. […] Data are expressed as mean±SD (n=5-7). *, P=0.002 WT versus Cav1^−/−; **, P=0.013 Cav-L versus Cav1^−/−; #, P=0.8 Cav-D versus Cav1^−/−.
Hemodynamic Measurements. RVSP was determined with a 1.4 F pressure transducer catheter (Millar Instruments) and the Acknowledge software (Biopac Systems, Inc.). […]

[3] = tested on: human PKG-1a; assay: Myc-tagged PKG-1a tyrosine mutants treated with peroxynitrite: kinase assay and tyrosine nitration; type: biochemical; conditions: in contrast to wildtype PKG-1
Procedure: Identification of Nitrated Tyrosine Residues of PKG-1a. Tyrosine residue was mutated to Phenylalanine by site-directed mutagenesis following manufacture's instruction (Stratagene). Myc-tagged wild-type and mutant PKG-1a were overexpressed in human lung microvascular endothelial cells and cell lysates were then immunoprecipitated with anti-Myc for 4 hr at RT. […] Following 14 min incubation in 50 mM K2HPO4 buffer at RT, kinase activity was then measured as described above.
(§1) To address the role of peroxynitrite in the mechanism of the observed impairment of PKG activity, we treated human pulmonary artery smooth muscle cells with 3-morpholinosydnonimine (SIN-1), the superoxide and NO donor that forms peroxynitrite simultaneously (30). […] FIG. 9A relates to dose-dependent impairment of PKG activity by peroxynitrite. Purified […] (Promega) was incubated with peroxynitrite at indicated concentrations for 14 min at RT or with DETA NONOate (NONOate) for 30 min in dark at RT. Kinase activity was then assayed. Data is expressed mean+/−SD (n=3). *, P<0.05 versus control (0 μM). FIG. 9B relates to screening of PKG-1a mutants with in vitro kinase assay. […] PKG activity was expressed as pmoles/min/μg cell lysates. […] Data are expressed as mean±SD (n=3), *, P<0.05 versus either PKG-1a mutant. […]

[4] = molecular target: T1, purified PKG-1 (Bos taurus, UniProt P00516); assay: In vitro kinase assay of purified PKG-1 after peroxynitrite or DETA NONOate; type: biochemical; conditions: peroxynitrite at indicated concentrations, 14 min at RT
T1 construct: purchased Promega
T1 sequence (P00516 1-671): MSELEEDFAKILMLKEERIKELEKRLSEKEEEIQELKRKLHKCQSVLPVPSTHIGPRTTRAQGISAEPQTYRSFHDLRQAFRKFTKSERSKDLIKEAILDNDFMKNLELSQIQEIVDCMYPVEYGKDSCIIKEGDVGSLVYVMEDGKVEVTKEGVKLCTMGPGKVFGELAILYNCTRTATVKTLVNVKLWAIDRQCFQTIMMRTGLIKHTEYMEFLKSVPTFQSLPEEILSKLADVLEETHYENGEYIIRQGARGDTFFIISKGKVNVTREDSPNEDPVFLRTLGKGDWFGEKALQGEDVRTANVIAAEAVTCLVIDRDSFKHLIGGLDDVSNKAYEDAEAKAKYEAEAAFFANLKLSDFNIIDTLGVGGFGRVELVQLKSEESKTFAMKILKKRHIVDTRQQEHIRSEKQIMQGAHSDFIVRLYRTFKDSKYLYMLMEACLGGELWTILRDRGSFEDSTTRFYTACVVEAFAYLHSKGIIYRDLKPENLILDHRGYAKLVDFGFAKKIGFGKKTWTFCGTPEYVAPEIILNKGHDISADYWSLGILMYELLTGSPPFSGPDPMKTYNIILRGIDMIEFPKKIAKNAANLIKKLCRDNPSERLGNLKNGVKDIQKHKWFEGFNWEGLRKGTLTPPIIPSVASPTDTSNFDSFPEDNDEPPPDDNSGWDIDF
Procedure: PKG Kinase Assay. In vitro activity of PKG was determined by measuring the transfer of the [g-^32P] phosphate group of ATP to the specific PKG substrate, BPDEtide (Calbiochem) in the absence or presence of exogenous 2.5 mM cGMP as described in Example 13. PKG activity is expressed as picmoles of ^32P incorporated into PKG substrate per min per microgram protein.
as §1, with “assay. At 48 hr post-transfection, myc-tagged WT and PKG-1a mutants were immunoprecipitated with anti-myc beads and aliquoted for incubation with either peroxynitrite (100 μM) or the same amount of 0.1 N NaOH only (CTL).” for “assay.”

SMILES	Number of muscularized distal pulmonary arteries [1]	RVSP [2]	PKG activity following peroxynitrite treatment ([3]; PKG-1a with mutation of tyrosine residue 345 or 549, peroxynitrite 100 μM)	Tyrosine nitration following peroxynitrite treatment ([3]; PKG-1 mutants (tyrosine 345 or 549), peroxynitrite 250 μM, 14 min at RT)	PKG activity [4]
COC(=O)[C@H](N)CCCN=C(N)N[N+](=O)[O-] [D-NAME]	no effect	no effect			
O=NOO [peroxynitrite]			no impairment of PKG activity	diminished tyrosine nitration	decreased PKG activity in a concentration-dependent manner
